From patent publication US9402826B2, “Neuronal pain pathway modulators” (The Trustees of Columbia University in the City of New York, priority 2006, dated 2016)
Like-named read-outs stand apart in the source and are kept apart here.

Legend:
PKG = biological target: T1, PKG (Homo sapiens, UniProt Q13976); assay: PKG inhibition: transfer of gamma-32P from ATP to peptide substrate; format: biochemical
T1 sequence (Q13976 1-671): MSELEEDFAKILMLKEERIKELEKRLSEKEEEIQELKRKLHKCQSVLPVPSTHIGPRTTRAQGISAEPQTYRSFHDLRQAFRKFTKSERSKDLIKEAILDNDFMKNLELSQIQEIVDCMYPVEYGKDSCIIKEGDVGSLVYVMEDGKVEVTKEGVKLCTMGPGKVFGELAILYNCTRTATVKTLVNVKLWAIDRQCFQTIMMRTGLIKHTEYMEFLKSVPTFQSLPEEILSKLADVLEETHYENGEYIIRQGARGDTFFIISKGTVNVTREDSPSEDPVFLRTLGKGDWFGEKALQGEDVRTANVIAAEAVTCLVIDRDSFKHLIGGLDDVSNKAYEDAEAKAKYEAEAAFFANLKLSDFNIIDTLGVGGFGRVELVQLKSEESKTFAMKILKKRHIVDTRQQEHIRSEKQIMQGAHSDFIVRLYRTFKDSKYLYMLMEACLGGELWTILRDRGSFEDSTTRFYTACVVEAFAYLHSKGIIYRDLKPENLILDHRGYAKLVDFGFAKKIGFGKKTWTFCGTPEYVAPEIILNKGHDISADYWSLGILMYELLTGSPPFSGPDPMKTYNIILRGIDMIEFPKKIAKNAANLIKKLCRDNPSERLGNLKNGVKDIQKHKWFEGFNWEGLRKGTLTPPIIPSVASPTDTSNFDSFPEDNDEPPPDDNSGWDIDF

PKA [1] = biological target: T2, PKA (Homo sapiens, UniProt P17612); assay: PKA inhibition; format: biochemical; conditions: for difference of IC50 for PKA versus PKG: PKA IC50 relative to PKG IC50
PKA [2] = biological target: T2, PKA; conditions: cited from earlier work
PKC isoforms = conditions: Series B, Table 2; read-out: IC50 PKC isoforms from literature; cited from earlier work
rats [3] = assay: Behavioural and motor observation of treated rats; format: in vivo; conditions: rat; eating, sleeping, defecating, micturation, balance, exploring, socialization
Protocol: Modification of compound 6 to increase affinity and selectivity, and perhaps plasma half-life, as described above, will be important. […] For example, the animals had difficulty in changing from the supine to prone positions. […] The effects lasted for at least 24 hours and disappeared after 3 days.

[4] = tested on: CFA-induced thermal hyperalgesia in the hindpaws of rats; assay: CFA-induced thermal hyperalgesia, hindpaw withdrawal latency; format: in vivo; conditions: rat; for Effectiveness: 24 hours after CFA injection
Protocol: Both compounds were further tested for their efficacy in reducing complete Freund's adjuvant (CFA)-induced thermal hyperalgesia in the hindpaws of rats. The hindpaws of rats were first tested for their response to a thermal probe as a baseline reference. Then the right hindpaw was injected with CFA (100 μl). The injected site developed edema and redness, indicating an inflammatory reaction, within 12 hours. […] The rats were then given either compound 6 or 46 at different times after CFA injection via different routes as shown in the tables below. Each hindpaw was then tested for its response to a thermal stimulus on successive days.

rats [5] = conditions: intrathecal, after induction of an inflammatory response, 10 and 60 minutes later; cited from earlier work
[6] = Activity: IC50 vrs PKG, Series B, 30 μM ATP
[7] = Table 4, read-out: PKA inhibition (IC50)

## O=C(Nc1ccccc1)Nc1ccc(C(=O)O[C@@H]2CCC[C@H]2NC(=O)c2ccc(O)cc2)cc1 (relative stereo) [Series A 11]
PKG; Series A, compounds at 10 μM, 30 μM ATP
  Activity (ability to inhibit PKG): no inhibition

## O=C(OCc1ccccc1Cl)c1ccc(-c2ccc(O)cc2)cc1 [Compound 8J]
PKG; 10 μM compound, average of two independent experiments
  inhibition of PKG activity: weaker inhibition
PKG; 1 and 10 micromolar compound (FIGS. 10A-B)
  inhibitory activity on PKG (in words): significant inhibitory activity

## O=C(NC1CCCC1OC(=O)c1cc(O)c(C(=O)c2c(O)cccc2C(=O)O)c(O)c1)c1ccc(O)cc1 (stereo not shown) [Compound B-1, reference compound]
PKG; [6]
  IC50: 0.007 to 0.008 µM
PKG; PKG activity (IC50), Table 1
  IC50: 0.007 to 0.008 µM
PKG; PKG inhibition (IC50), Table 3
  IC50: 0.007 µM
PKA [1]
  difference of IC50 for PKA versus PKG: 3 fold

## O=C(NC1CNCC1OC(=O)c1cc(O)c(C(=O)c2c(O)cccc2C(=O)O)c(O)c1)c1ccc(O)cc1 (stereo not shown) [Compound B-2, reference compound]
PKG
  reduction of PKG inhibition relative to balanol: 5 fold
PKG; [6]
  IC50: 0.007 µM
PKG; PKG activity (IC50), Table 1
  IC50: 0.007 µM
PKG; PKG inhibition (IC50), Table 3
  IC50: 0.007 µM
PKA [2]; read-out: IC50 PKA from literature, Series B, Table 2
  IC50: 0.07 µM
PKA [2]; read-out: PKA activity (IC50), Table 1, from Lai et al. 1997
  IC50: 0.004 to 0.033 µM
PKA [2]; read-out: PKA inhibition (IC50), Table 3, same values given as from literature in Table 2
  IC50: 0.07 µM
PKC isoforms
  IC50: 0.004 to 0.033 µM
PKA [1]
  difference of IC50 for PKA versus PKG: 3 fold

## COCOc1ccc(OC)c(F)c1C(=O)c1ccc(C(=O)OC2CNCC2NC(=O)c2ccc(O)cc2)cc1 (stereo not shown) [Compound B-6]
Rats [3]
  adverse behavioral effects: did not exhibit any adverse behavioral effects
PKG; [6]
  IC50: 0.04 µM
PKG; IC50 with PKG, Example 12
  IC50: 0.04 µM
PKG; PKG activity (IC50), Table 1
  IC50: 0.04 µM
PKG; PKG inhibition (IC50), Table 4
  IC50: 0.04 µM
[4]; 3.3 nmol, subcutaneous pump, 60 hours after CFA injection, 5 days later
  Effectiveness (recovery): >90%
[4]; 0.25 μM final CSF conc., intrathecal pump, 72 hours after CFA injection, 10 days
  Effectiveness (recovery): >50%
[4]; 25 μM final CSF conc., intrathecal pump, 6 days later
  Effectiveness: >90% 6 days
[4]; 82.5 μM final CSF conc., intrathecal single injection
  Effectiveness: No effect
[4]; doses and routes tested, preliminary results
  analgesic effects (in words): analgesic effects comparable to that achieved with the most potent commercially available inhibitor of PKG
[4]; single dose injection
  effect on thermal hyperalgesia: failed to reduce thermal hyperalgesia
PKA [1]; Example 12, read-out: IC50 with PKA
  IC50: 0.95 µM
PKA [1]
  difference of IC50 for PKA versus PKG: about 20 fold
PKA [1]; [7]
  IC50: 0.95 µM

## COc1ccc(O)c(C(=O)c2ccc(C(=O)OC3CNCC3NC(=O)c3ccc(O)cc3)cc2)c1F (stereo not shown) [Compound B-7]
PKG; [6]
  IC50: 0.04 µM
PKG; PKG activity (IC50), Table 1
  IC50: 0.04 µM
PKG; PKG inhibition (IC50), Table 4
  IC50: 0.04 µM
PKA [1]
  difference of IC50 for PKA versus PKG: approximately the same IC50
PKA [1]; Series B, Table 2, read-out: Activity: IC50 vrs PKA
  IC50: 0.038 µM
PKA [1]; Table 1, read-out: PKA activity (IC50)
  IC50: 0.038 µM
PKA [1]; [7]
  IC50: 0.04 µM

## CCCOc1ccc(OC)c(F)c1C(=O)c1ccc(C(=O)OC2CNCC2NC(=O)c2ccc(O)cc2)cc1 (stereo not shown) [Compound B-21]
PKG; PKG inhibition (IC50), Table 4
  IC50: 0.2 µM
PKA [1]; [7]
  IC50: > 10 µM

## O=C(N[C@@H]1CNC[C@H]1NC(=O)c1ccc(O)cc1)c1ccc(O)cc1 [Compound B-48]
PKG
  PKG inhibitory activity (in words): moderate PKG inhibitory activity
PKG; Table 6, read-out: PKG inhibition (IC50)
  IC50: ~0.2 µM

## O=C(N[C@@H]1CNC[C@H]1NC(=O)c1ccc2[nH]ncc2c1)c1ccc(O)cc1 [Compound B-50]
PKG; IC50 (PKG), text b321
  IC50: 0.07 µM
PKA [1]; PKG versus PKA
  selectivity over PKA (in words): no selectivity over PKA
PKA [1]; Table 6, read-out: PKA inhibition (IC50)
  IC50: 0.07 µM

## CCN(CC)CC.Nc1nc2c(nc(Sc3ccc(Cl)cc3)n2[C@@H]2O[C@@H]3COP(O)(=S)O[C@H]3[C@H]2O)c(=O)[nH]1 (stereo partly shown) [Rp-8-[4-chlorophenyl)thio]-cGMPS triethylamine]
Rats [5]
  effect on acute pain: significant attenuation of acute pain

## O=C(NC1CNCCCC1OC(=O)c1cc(O)c(C(=O)c2c(O)cccc2C(=O)O)c(O)c1)c1ccc(O)cc1 (stereo not shown) [balanol, reference compound]
PKG; Table 3, read-out: PKG inhibition (IC50)
  IC50: 0.0016 µM
